Data from the NIST ThermoML archive (doi:10.1021/je0202073).
± gives the expanded uncertainty stated by the source.

Key:
[1] = refractive index (Na D-line) (dimensionless); conditions: 303.15 K, 101.33 kPa, Liquid
[2] = Liquid; for mass density: 101.33 kPa, vibrating tube; for Normal boiling temperature: Ebulliometric method (Recirculating still); for vapor or sublimation pressure: ebulliometry
[3] = excess molar enthalpy (molar enthalpy of mixing); xn = mol fraction of the nth substance listed; conditions: 101.3 kPa, Liquid, Calvet calorimetry
[4] = xn = mol fraction of the nth substance listed; conditions: 101.3 kPa, Liquid

CCOC(=O)CC [ethyl propanoate]
Conditions	mass density [kg/m3]	refractive index
[1], Abbe refractometer	–	1.3791 ± 0.0005
[2], 298.15 K	883.95 ± 0.46	–

Conditions	Normal boiling temperature [°C]
[2]	98.76 ± 0.11

CCOC(C)=O [ethyl acetate]
Conditions	mass density [kg/m3]	refractive index
[1], Abbe refractometer	–	1.3675 ± 0.0005
[2], 298.15 K	894.44 ± 0.46	–

Conditions	Normal boiling temperature [°C]
[2]	77.10 ± 0.11

CC(C)(C)O [2-methylpropan-2-ol]
Conditions	mass density [kg/m3]	refractive index	vapor or sublimation pressure [kPa]
[1], Standard Abbe refractometry	–	1.382 ± 0.0007	–
[2], 303.15 K	775.37 ± 0.19	–	–
[2], 332.3 K	–	–	37.4 ± 0.18
[2], 333.03 K	–	–	38.69 ± 0.17
[2], 333.45 K	–	–	39.34 ± 0.18
[2], 334.6 K	–	–	41.37 ± 0.2
[2], 335.29 K	–	–	42.93 ± 0.2
[2], 335.87 K	–	–	43.85 ± 0.19
[2], 336.43 K	–	–	45.01 ± 0.22
[2], 337.17 K	–	–	46.69 ± 0.23
[2], 337.8 K	–	–	48.06 ± 0.22
[2], 338.37 K	–	–	49.27 ± 0.21
[2], 338.86 K	–	–	50.27 ± 0.23
[2], 339.5 K	–	–	51.81 ± 0.24
[2], 340.08 K	–	–	53.17 ± 0.23
[2], 340.59 K	–	–	54.25 ± 0.25
[2], 341.17 K	–	–	55.83 ± 0.25
[2], 341.63 K	–	–	56.78 ± 0.26
[2], 342.18 K	–	–	58.37 ± 0.27
[2], 342.68 K	–	–	59.61 ± 0.24
[2], 343.13 K	–	–	60.61 ± 0.27
[2], 343.7 K	–	–	62.3 ± 0.27
[2], 344.13 K	–	–	63.27 ± 0.28
[2], 344.68 K	–	–	64.99 ± 0.28
[2], 345.06 K	–	–	65.81 ± 0.26
[2], 345.49 K	–	–	67.05 ± 0.31
[2], 346.11 K	–	–	69.05 ± 0.31
[2], 346.51 K	–	–	70.21 ± 0.29
[2], 346.83 K	–	–	71.11 ± 0.3
[2], 347.28 K	–	–	72.45 ± 0.28
[2], 347.68 K	–	–	73.43 ± 0.32
[2], 348.2 K	–	–	75.35 ± 0.33
[2], 348.54 K	–	–	76.17 ± 0.3
[2], 348.9 K	–	–	77.42 ± 0.33
[2], 349.34 K	–	–	78.76 ± 0.32
[2], 349.74 K	–	–	80.07 ± 0.34
[2], 350.1 K	–	–	81.3 ± 0.34
[2], 350.53 K	–	–	82.71 ± 0.34
[2], 350.9 K	–	–	83.96 ± 0.37
[2], 351.33 K	–	–	85.66 ± 0.35
[2], 351.67 K	–	–	86.64 ± 0.35
[2], 352.05 K	–	–	88.15 ± 0.36
[2], 352.45 K	–	–	89.39 ± 0.34
[2], 352.8 K	–	–	90.67 ± 0.4
[2], 353.13 K	–	–	92.07 ± 0.39
[2], 353.5 K	–	–	93.39 ± 0.38
[2], 353.81 K	–	–	94.63 ± 0.38
[2], 354.18 K	–	–	95.95 ± 0.35
[2], 354.51 K	–	–	97.04 ± 0.37
[2], 354.85 K	–	–	98.36 ± 0.43
[2], 355.23 K	–	–	100.07 ± 0.4
[2], 355.5 K	–	–	100.88 ± 0.37
[2], 355.58 K	–	–	101.32 ± 0.36
[2], 355.83 K	–	–	102.22 ± 0.41
[2], 356.22 K	–	–	103.92 ± 0.45
[2], 356.52 K	–	–	105.27 ± 0.43
[2], 356.86 K	–	–	106.62 ± 0.39
[2], 357.15 K	–	–	107.71 ± 0.43
[2], 357.45 K	–	–	109.12 ± 0.45
[2], 357.77 K	–	–	110.47 ± 0.4
[2], 358.06 K	–	–	111.51 ± 0.41
[2], 358.35 K	–	–	112.83 ± 0.47
[2], 358.68 K	–	–	114.36 ± 0.44
[2], 358.96 K	–	–	115.48 ± 0.45
[2], 359.27 K	–	–	117 ± 0.46
[2], 359.84 K	–	–	119.53 ± 0.46
[2], 360.13 K	–	–	120.87 ± 0.46
[2], 360.46 K	–	–	122.36 ± 0.47
[2], 360.64 K	–	–	123.08 ± 0.46
[2], 360.97 K	–	–	124.73 ± 0.5
[2], 361.26 K	–	–	126.15 ± 0.46
[2], 361.47 K	–	–	126.96 ± 0.45
[2], 361.73 K	–	–	128.2 ± 0.49
[2], 362.02 K	–	–	129.63 ± 0.49
[2], 362.54 K	–	–	132.15 ± 0.51
[2], 362.75 K	–	–	133.36 ± 0.53
[2], 363.03 K	–	–	134.71 ± 0.51
[2], 363.08 K	–	–	134.81 ± 0.51
[2], 363.56 K	–	–	137.4 ± 0.55
[2], 363.82 K	–	–	138.8 ± 0.5
[2], 364.09 K	–	–	140.03 ± 0.5
[2], 364.33 K	–	–	141.29 ± 0.52
[2], 364.66 K	–	–	142.96 ± 0.54
[2], 365.09 K	–	–	145.34 ± 0.55
[2], 365.27 K	–	–	146.36 ± 0.55
[2], 365.62 K	–	–	148.18 ± 0.53
[2], 366.1 K	–	–	150.66 ± 0.56
[2], 366.51 K	–	–	153.08 ± 0.58
[2], 366.81 K	–	–	154.69 ± 0.55
[2], 367.08 K	–	–	156.16 ± 0.58
[2], 367.49 K	–	–	158.58 ± 0.57
[2], 367.83 K	–	–	160.39 ± 0.58
[2], 368.23 K	–	–	162.82 ± 0.62

CCOC(=O)CC [ethyl propanoate] + CC(C)(C)O
Conditions	excess molar enthalpy [kJ/mol]	excess molar volume [m3/mol]
[3], 299.15 K, x1 = 0.0555	0.335 ± 0.012	–
[3], 299.15 K, x1 = 0.1332	0.767 ± 0.014	–
[3], 299.15 K, x1 = 0.2151	1.13 ± 0.017	–
[3], 299.15 K, x1 = 0.2979	1.45 ± 0.019	–
[3], 299.15 K, x1 = 0.3767	1.66 ± 0.021	–
[3], 299.15 K, x1 = 0.4164	1.74 ± 0.022	–
[3], 299.15 K, x1 = 0.4497	1.79 ± 0.022	–
[3], 299.15 K, x1 = 0.477	1.81 ± 0.023	–
[3], 299.15 K, x1 = 0.5513	1.8 ± 0.022	–
[3], 299.15 K, x1 = 0.6351	1.72 ± 0.022	–
[3], 299.15 K, x1 = 0.73	1.48 ± 0.02	–
[3], 299.15 K, x1 = 0.8294	1.08 ± 0.017	–
[3], 299.15 K, x1 = 0.9242	0.551 ± 0.013	–
[3], 318.15 K, x1 = 0.051	0.293 ± 0.011	–
[3], 318.15 K, x1 = 0.1094	0.585 ± 0.013	–
[3], 318.15 K, x1 = 0.1681	0.875 ± 0.015	–
[3], 318.15 K, x1 = 0.2276	1.13 ± 0.017	–
[3], 318.15 K, x1 = 0.2892	1.37 ± 0.018	–
[3], 318.15 K, x1 = 0.3477	1.54 ± 0.02	–
[3], 318.15 K, x1 = 0.4028	1.65 ± 0.021	–
[3], 318.15 K, x1 = 0.4347	1.71 ± 0.022	–
[3], 318.15 K, x1 = 0.4528	1.74 ± 0.022	–
[3], 318.15 K, x1 = 0.4786	1.77 ± 0.022	–
[3], 318.15 K, x1 = 0.5297	1.78 ± 0.022	–
[3], 318.15 K, x1 = 0.5872	1.75 ± 0.022	–
[3], 318.15 K, x1 = 0.6499	1.67 ± 0.021	–
[3], 318.15 K, x1 = 0.7164	1.51 ± 0.02	–
[3], 318.15 K, x1 = 0.7897	1.26 ± 0.018	–
[3], 318.15 K, x1 = 0.8641	0.908 ± 0.016	–
[3], 318.15 K, x1 = 0.9381	0.479 ± 0.013	–
[4], 303.15 K, x1 = 0.0345	–	7.6e-07 ± 6e-08
[4], 303.15 K, x1 = 0.0905	–	2.12e-06 ± 7e-08
[4], 303.15 K, x1 = 0.1495	–	3.31e-06 ± 7e-08
[4], 303.15 K, x1 = 0.1943	–	4.02e-06 ± 7e-08
[4], 303.15 K, x1 = 0.2497	–	4.82e-06 ± 8e-08
[4], 303.15 K, x1 = 0.2987	–	5.39e-06 ± 8e-08
[4], 303.15 K, x1 = 0.3496	–	5.77e-06 ± 9e-08
[4], 303.15 K, x1 = 0.3997	–	6.19e-06 ± 9e-08
[4], 303.15 K, x1 = 0.4466	–	6.39e-06 ± 9e-08
[4], 303.15 K, x1 = 0.4486	–	6.45e-06 ± 9e-08
[4], 303.15 K, x1 = 0.4998	–	6.48e-06 ± 9e-08
[4], 303.15 K, x1 = 0.5006	–	6.53e-06 ± 9e-08
[4], 303.15 K, x1 = 0.5163	–	6.52e-06 ± 9e-08
[4], 303.15 K, x1 = 0.5188	–	6.51e-06 ± 9e-08
[4], 303.15 K, x1 = 0.5569	–	6.47e-06 ± 9e-08
[4], 303.15 K, x1 = 0.5646	–	6.42e-06 ± 9e-08
[4], 303.15 K, x1 = 0.5964	–	6.31e-06 ± 9e-08
[4], 303.15 K, x1 = 0.6368	–	6.07e-06 ± 9e-08
[4], 303.15 K, x1 = 0.6458	–	6e-06 ± 9e-08
[4], 303.15 K, x1 = 0.7044	–	5.45e-06 ± 8e-08
[4], 303.15 K, x1 = 0.7533	–	4.87e-06 ± 8e-08
[4], 303.15 K, x1 = 0.8103	–	4.04e-06 ± 8e-08
[4], 303.15 K, x1 = 0.858	–	3.25e-06 ± 7e-08
[4], 303.15 K, x1 = 0.9096	–	2.24e-06 ± 7e-08
[4], 303.15 K, x1 = 0.9432	–	1.54e-06 ± 6e-08
[4], 318.15 K, x1 = 0.0694	–	1.85e-06 ± 6e-08
[4], 318.15 K, x1 = 0.1223	–	2.99e-06 ± 7e-08
[4], 318.15 K, x1 = 0.1759	–	3.87e-06 ± 7e-08
[4], 318.15 K, x1 = 0.2144	–	4.51e-06 ± 8e-08
[4], 318.15 K, x1 = 0.2746	–	5.29e-06 ± 8e-08
[4], 318.15 K, x1 = 0.3188	–	5.79e-06 ± 9e-08
[4], 318.15 K, x1 = 0.3648	–	6.16e-06 ± 9e-08
[4], 318.15 K, x1 = 0.4303	–	6.43e-06 ± 9e-08
[4], 318.15 K, x1 = 0.4669	–	6.5e-06 ± 9e-08
[4], 318.15 K, x1 = 0.5429	–	6.53e-06 ± 9e-08
[4], 318.15 K, x1 = 0.596	–	6.43e-06 ± 9e-08
[4], 318.15 K, x1 = 0.6662	–	6.05e-06 ± 9e-08
[4], 318.15 K, x1 = 0.7319	–	5.43e-06 ± 8e-08
[4], 318.15 K, x1 = 0.8088	–	4.45e-06 ± 8e-08
[4], 318.15 K, x1 = 0.8557	–	3.75e-06 ± 8e-08
[4], 318.15 K, x1 = 0.9183	–	2.28e-06 ± 7e-08

CCCC(=O)OCC [ethyl butanoate]
Conditions	mass density [kg/m3]	refractive index
[1], Abbe refractometer	–	1.388 ± 0.0006
[2], 298.15 K	873.94 ± 0.9	–

Conditions	Normal boiling temperature [°C]
[2]	121.02 ± 0.13

CCOC=O [ethyl methanoate]
Conditions	mass density [kg/m3]	refractive index
[1], Abbe refractometer	–	1.355 ± 0.0006
[2], 298.15 K	914.53 ± 0.94	–

Conditions	Normal boiling temperature [°C]
[2]	54.14 ± 0.13
